Patent US20090202569A1, “Prophylactic/Therapeutic Agent for Cancer” (priority 2006, published 2009)

Key:
[1] = tested on: SF268/mock cells; assay: FAS inhibitor sensitivity of control cells, surviving cells counted by trypan blue exclusion; format: cell-based, human; settings: 15 μg/ml, treated for 24 hours
[2] = tested on: SF268/ACS5 cells; assay: FAS inhibitor sensitivity of cells with stable high ACS5 expression, surviving cells counted by trypan blue exclusion; format: cell-based, human; settings: 15 μg/ml, treated for 24 hours
[3] = tested on: lung cancer cell strain NCI-H23; assay: Combined effect of ACS inhibitor and FAS inhibitors, cell survival rate by the Sulforhodamine B method; format: cell-based; settings: 3 days, n=3, 100% = without drug treatment

| Structure (SMILES) | growth suppression effect [1] | growth suppression effect [2] | cell survival rate ([3]; NCI-H23, 2 μM FAS inhibitor alone) | cell survival rate ([3]; NCI-H23, 0.3 μM Triacsin C alone) |
| --- | --- | --- | --- | --- |
| C/C=C/C/C=C/CCC(=O)[C@H]1O[C@H]1C(N)=O [Cerulenin, 2R,3S,E,E)-2,3-epoxy-4-oxo-7,10-dodecadienamide] | clear growth suppression effect | no growth suppression effect | 70.2±7.9% |  |
| CCCC=CCC=CC=CC=NNN=O [Triacsin C, 2,4,7-undecatrienal nitrosohydrazone] |  |  |  | 56.3±0.5% |
